# Source: patent US12187728B2 (Raze Therapeutics, Inc., priority 2015, dated 2025)
# Target: T1, Human MTHFD2 (Homo sapiens, UniProt P13995)
# T1 construct: residues 36-350 in Uniport ID P13995; His6 (N); made in house; host or cells: E. coli
# T1 sequence (P13995 36-350): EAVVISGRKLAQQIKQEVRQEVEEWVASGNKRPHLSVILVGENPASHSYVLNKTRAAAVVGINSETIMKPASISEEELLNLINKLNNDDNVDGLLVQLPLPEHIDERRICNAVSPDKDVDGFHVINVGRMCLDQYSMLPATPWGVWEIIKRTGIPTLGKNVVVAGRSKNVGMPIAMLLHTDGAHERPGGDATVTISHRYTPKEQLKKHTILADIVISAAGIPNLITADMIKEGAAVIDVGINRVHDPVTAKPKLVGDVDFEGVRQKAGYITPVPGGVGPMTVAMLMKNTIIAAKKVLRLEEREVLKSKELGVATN
# Assay: MTHFD2 Activity Assay (dehydrogenase activity, diaphorase/resazurin coupled fluorescence)
# Format: biochemical
# Conditions: inhibitory activity (IC50 and/or binding constant); 0.2 nM MTHFD2, 11 concentrations
# Outline: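 Steps: compound + 0.2 nM enzyme, 15 min, pH 8.0 Hepes buffer; add 70 μM CH2-THF, 1 mM NAD+, 100 μM resazurin, diaphorase; 30 min; quench with EDTA; read fluorescence. Data normalized to DMSO (100%) and no-enzyme (0%) wells.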
row,SMILES,IC50
1,"CCC(N)c1nc2c(c(=O)n(Cc3cc4c(Cl)cccc4[nH]3)c(=O)n2C)n1C (centres unmarked) [Example 434, 8-(1-aminopropyl)-1-[(4-chloro-1H-indol-2-yl)methyl]-3,7-dimethyl-purine-2,6-dione]",0.01 to 1 µM
2,"CC(C)C(N)c1nc2c(c(=O)n(Cc3cc4c(Cl)cccc4[nH]3)c(=O)n2C)n1C (centres unmarked) [Example 437, 8-(1-amino-2-methyl-propyl)-1-[(4-chloro-1H-indol-2-yl)methyl]-3,7-dimethyl-purine-2,6-dione]",0.01 to 1 µM
3,"CNC(C)c1nc2c(c(=O)n(Cc3cc4c(Cl)cccc4[nH]3)c(=O)n2C)n1C (centres unmarked) [Example 438, 1-[(4-chloro-1H-indol-2-yl)methyl]-3,7-dimethyl-8-[1-(methylamino)ethyl]purine-2,6-dione]",0.01 to 1 µM
4,"Cn1c(N[C@H]2CCC[C@H]2N)nc2c1c(=O)n(Cc1cc3c(Cl)cccc3[nH]1)c(=O)n2C [Example 439, 8-((1S,2R)-2-aminocyclopentylamino)-1-((4-chloro-1H-indol-2-yl)methyl)-3,7-dimethyl-1H-purine-2,6(3H,7H)-dione]",0.01 to 1 µM
5,"Cn1c(Nc2ccnc(CNC(=O)CN)n2)nc2c1c(=O)n(Cc1cc3c(Cl)cccc3[nH]1)c(=O)n2C [Example 440, 2-amino-N-((4-(1((4-chloro-1H-indol-2-yl)methyl)-3,7-dimethyl-2,6-dioxo-2,3,6,7-tetrahydro-1H-purin-8-ylamino)pyrimidin-2-yl)methyl)acetamide]",0.01 to 1 µM
6,"CCn1c(=O)n(Cc2cc3c(Cl)cccc3[nH]2)c(=O)c2c1nc(C(C)N)n2C (centres unmarked) [Example 441, 8-(1-aminoethyl)-1-((4-chloro-1H-indol-2-yl)methyl)-3-ethyl-7-methyl-1H-purine-2,6(3H,7H)-dione]",0.01 to 1 µM
7,Cn1c(C(N)CC2CC2)nc2c1c(=O)n(Cc1cc3c(Cl)cccc3[nH]1)c(=O)n2C (centres unmarked) [Example 442],0.01 to 1 µM
8,"Cn1c(C(N)C2CCC2)nc2c1c(=O)n(Cc1cc3c(Cl)cccc3[nH]1)c(=O)n2C (centres unmarked) [Example 443, 8-[amino(cyclobutyl)methyl]-1-[(4-chloro-1H-indol-2-yl)methyl]-3,7-dimethyl-purine-2,6-dione]",0.01 to 1 µM
9,"Cn1c(C(N)C2CC2)nc2c1c(=O)n(Cc1cc3c(Cl)cccc3[nH]1)c(=O)n2C (centres unmarked) [Example 444, 8-[amino(cyclopropyl)methyl]-1-[(4-chloro-1H-indol-2-yl)methyl]-3,7-dimethyl-purine-2,6-dione]",0.01 to 1 µM
10,"Cn1c(C(N)c2cccnc2)nc2c1c(=O)n(Cc1cc3c(Cl)cccc3[nH]1)c(=O)n2C (centres unmarked) [Example 445, 8-[amino(3-pyridyl)methyl]-1-[(4-chloro-1H-indol-2-yl)methyl]-3,7-dimethyl-purine-2,6-dione]",0.01 to 1 µM
11,"Cn1c(C(N)C2CCCCC2)nc2c1c(=O)n(Cc1cc3c(Cl)cccc3[nH]1)c(=O)n2C (centres unmarked) [Example 446, 8-[amino(cyclohexyl)methyl]-1-[(4-chloro-1H-indol-2-yl)methyl]-3,7-dimethyl-purine-2,6-dione]",0.01 to 1 µM
12,"Cn1c([C@H](N)Cc2ccncc2)nc2c1c(=O)n(Cc1cc3c(Cl)cccc3[nH]1)c(=O)n2C [Example 447, (R)-8-(1-amino-2-(pyridin-4-yl)ethyl)-1-((4-chloro-1H-indol-2-yl)methyl)-3,7-dimethyl-1H-purine-2,6(3H,7H)-dione]",0.01 to 1 µM
13,"Cc1cccc2cc(Cn3c(=O)c4c(nc(C(C)N)n4C)n(C)c3=O)ccc12 (centres unmarked) [Example 448, 8-(1-aminoethyl)-3,7-dimethyl-1-((5-methylnaphthalen-2-yl)methyl)-1H-purine-2,6(3H,7H)-dione]",0.01 to 1 µM
14,"Cn1c([C@@H](N)Cc2ccncc2)nc2c1c(=O)n(Cc1cc3c(Cl)cccc3[nH]1)c(=O)n2C [Example 449, (S)-8-(1-amino-2-(pyridin-4-yl)ethyl)-1-((4-chloro-1H-indol-2-yl)methyl)-3,7-dimethyl-1H-purine-2,6(3H,7H)-dione]",0.01 to 1 µM
15,"Cn1c(C(N)Cc2ccccc2)nc2c1c(=O)n(Cc1cc3c(Cl)cccc3[nH]1)c(=O)n2C (centres unmarked) [Example 450, 8-(1-amino-2-phenylethyl)-1-((4-chloro-1H-indol-2-yl)methyl)-3,7-dimethyl-1H-purine-2,6(3H,7H)-dione]",0.01 to 1 µM
16,"CC(=O)NCc1nccc(Nc2nc3c(c(=O)n(Cc4cc5c(Cl)cccc5[nH]4)c(=O)n3C)n2C)n1 [Example 451, N-((4-(1-((4-chloro-1H-indol-2-yl)methyl)-3,7-dimethyl-2,6-dioxo-2,3,6,7-tetrahydro-1H-purin-8-ylamino)pyrimidin-2-yl)methyl)acetamide]",0.01 to 1 µM

row,SMILES,IC50
1,"CC(N)c1nc2c(c(=O)n(Cc3ccc4c(C5CC5)cccc4c3)c(=O)n2C)n1C (centres unmarked) [Example 452, 8-(1-aminoethyl)-1-((5-cyclopropylnaphthalen-2-yl)methyl)-3,7-dimethyl-1H-purine-2,6(3H,7H)-dione]",0.01 to 1 µM
2,"Cn1c(C2CNCCO2)nc2c1c(=O)n(Cc1cc3c(Cl)cccc3[nH]1)c(=O)n2C (centres unmarked) [Example 453, 1-[(4-chloro-1H-indol-2-yl)methyl]-3,7-dimethyl-8-morpholin-2-yl-purine-2,6-dione]",0.01 to 1 µM
3,"Cn1c(C(N)C2CCOCC2)nc2c1c(=O)n(Cc1cc3c(Cl)cccc3[nH]1)c(=O)n2C (centres unmarked) [Example 454, 8-[amino(tetrahydropyran-4-yl)methyl]-1-[(4-chloro-1H-indol-2-yl)methyl]-3,7-dimethyl-purine-2,6-dione]",0.01 to 1 µM
4,"Cn1c(C(N)C2CCOCC2)nc2c1c(=O)n(Cc1[nH]c3cccc(Cl)c3c1Cl)c(=O)n2C (centres unmarked) [Example 455, 8-[amino(tetrahydropyran-4-yl)methyl]-1-[(3,4-dichloro-1H-indol-2-yl)methyl]-3,7-dimethyl-purine-2,6-dione]",0.01 to 1 µM
5,"CC(N)c1nc2c(c(=O)n(Cc3[nH]c4cccc(Cl)c4c3Cl)c(=O)n2C)n1C (centres unmarked) [Example 456, 8-(1-aminoethyl)-1-[(3,4-dichloro-1H-indol-2-yl)methyl]-3,7-dimethyl-purine-2,6-dione]",0.01 to 1 µM
6,"CC(c1nc2c(c(=O)n(Cc3cc4c(Cl)cccc4[nH]3)c(=O)n2C)n1C)N(C)C (centres unmarked) [Example 457, 1-[(4-chloro-1H-indol-2-yl)methyl]-8-[1-(dimethylamino)ethyl]-3,7-dimethyl-purine-2,6-dione]",0.01 to 1 µM
7,"Cn1c(C(N)CO)nc2c1c(=O)n(Cc1cc3c(Cl)cccc3[nH]1)c(=O)n2C (centres unmarked) [Example 458, 8-(1-amino-2-hydroxy-ethyl)-1-[(4-chloro-1H-indol-2-yl)methyl]-3,7-dimethyl-purine-2,6-dione]",0.01 to 1 µM
8,"CCn1c(=O)n(Cc2ccc3c(C)cccc3c2)c(=O)c2c1nc(C(C)N)n2C (centres unmarked) [Example 459, 8-(1-aminoethyl)-3-ethyl-7-methyl-1-((5-methylnaphthalen-2-yl)methyl)-1H-purine-2,6(3H,7H)-dione]",0.01 to 1 µM
9,"Cn1c(Nc2ccncc2)nc2c1c(=O)n(Cc1cc3cnccc3[nH]1)c(=O)n2C [Example 460, 1-((1H-pyrrolo[3,2-c]pyridin-2-yl)methyl)-3,7-dimethyl-8-(pyridin-4-ylamino)-1H-purine-2,6(3H,7H)-dione]",0.01 to 1 µM
10,"Cn1c(C(N)c2ccncc2)nc2c1c(=O)n(Cc1cc3c(Cl)cccc3[nH]1)c(=O)n2C (centres unmarked) [Example 461, 8-(amino(pyridin-4-yl)methyl)-1-((4-chloro-1H-indol-2-yl)methyl)-3,7-dimethyl-1H-purine-2,6(3H,7H)-dione]",0.01 to 1 µM
11,"Cn1c(Nc2ccnc(CNC(N)=O)n2)nc2c1c(=O)n(Cc1cc3c(Cl)cccc3[nH]1)c(=O)n2C [Example 462, 1-((4-(1-((4-chloro-1H-indol-2-yl)methyl)-3,7-dimethyl-2,6-dioxo-2,3,6,7-tetrahydro-1H-purin-8-ylamino)pyrimidin-2-yl)methyl)urea]",0.01 to 1 µM
12,"CCc1cccc2cc(Cn3c(=O)c4c(nc(C(C)N)n4C)n(C)c3=O)ccc12 (centres unmarked) [Example 463, 8-(1-aminoethyl)-1-((5-ethylnaphthalen-2-yl)methyl)-3,7-dimethyl-1H-purine-2,6(3H,7H)-dione]",0.01 to 1 µM
13,"Cn1c(C(N)C2CCCC2)nc2c1c(=O)n(Cc1cc3c(Cl)cccc3[nH]1)c(=O)n2C (centres unmarked) [Example 464, 8-(amino(cyclopentyl)methyl)-1-((4-chloro-1H-indol-2-yl)methyl)-3,7-dimethyl-3,7-dihydro-1H-purine-2,6-dione]",0.01 to 1 µM
14,"Cn1c(C(N)C(CO)CO)nc2c1c(=O)n(Cc1cc3c(Cl)cccc3[nH]1)c(=O)n2C (centres unmarked) [Example 465, 8-[1-amino-3-hydroxy-2-(hydroxymethyl)propyl]-1-[(4-chloro-1H-indol-2-yl)methyl]-3,7-dimethyl-purine-2,6-dione]",0.01 to 1 µM
15,"Cn1c(Nc2ccncc2)nc2c1c(=O)n(Cc1cc3c(Cl)cccc3[nH]1)c(=O)n2C1CC1 [Example 466, 1-[(4-chloro-1H-indol-2-yl)methyl]-3-cyclopropyl-7-methyl-8-(4-pyridylamino)purine-2,6-dione]",0.01 to 1 µM
16,"Cn1c(C(N)C2COC2)nc2c1c(=O)n(Cc1cc3c(Cl)cccc3[nH]1)c(=O)n2C (centres unmarked) [Example 467, 8-[amino(oxetan-3-yl)methyl]-1-[(4-chloro-1H-indol-2-yl)methyl]-3,7-dimethyl-purine-2,6-dione]",5 to 10 µM
